Reference: PubChem BioAssay AID1199 (EPA DSSTox, 2008)
Activity calls are given as the source filed them.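 Rule for the calls: active = a tumour-causing dose and a tumour site recorded for mice in at least one sex group; inconclusive = only government mouse studies exist and were judged inadequate; inactive = mouse studies exist but none gave tumours.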

Tested on: mouse carcinogenicity bioassay, TD50 from CPDB
Assay: DSSTox (CPDBAS) Carcinogenic Potency Database Summary Mouse Bioassay Results
Conditions: for outcome: TD50_Mouse_Note: no positive results
Procedure, shortened: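 Chronic long-term mouse cancer bioassays from literature and NCI/NTP, compiled per sex. TD50 is the standardized carcinogenic potency, using the most positive experiment per sex-species; target sites follow author opinion.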

[1] = TargetSites_Mouse_Female: no positive results
[2] = TD50_Mouse_Note: TD50 is harmonic mean of more than one positive test, TargetSites_Mouse_Female: liver

Compound	outcome [1]	other results
C[C@]12C=CC(=O)C=C1CC[C@@H]1[C@@H]2C(=O)C[C@@]2(C)[C@H]1CC[C@]2(O)C(=O)CO	inactive; no positive results	–
CN(C)CCC(c1ccc(Cl)cc1)c1ccccn1 (stereo not drawn)	inactive; no positive results	–
ClC(Cl)(Cl)Cl	–	Potency (TD50_Mouse_Note: TD50 is harmonic mean of more than one positive test, greater than ten-fold variation among TD50 values for positive res, TargetSites_Mouse_Female: adrenal gland, liver): 0.218 mmol/kg/day
CN(C)C(=S)S	inactive; no positive results	–
FC(F)Cl	inactive; no positive results	–
CCOC(N)=O	–	Potency (TD50_Mouse_Note: TD50 is harmonic mean of more than one positive test, greater than ten-fold variation among TD50 values for positive res, TargetSites_Mouse_Female: lung): 0.19 mmol/kg/day
CCn1cc(C(=O)O)c(=O)c2cc3c(cc21)OCO3	inactive; no positive results	–
CCCCCc1cc(O)c2c(c1)OC(C)(C)[C@@H]1CCC(C)=C[C@@H]21	inactive; no positive results	–
O.O.O.O.O.O.O=S(=O)([O-])[O-].[Ni+2]	inactive; no positive results	–
Cc1cccc(Nc2cc(Cl)nc(SCC(=O)O)n2)c1C	–	Potency (TD50_Mouse_Note: TD50 value is overestimated as upper 99% confidence limit from study with 100% tumor incidence but no lifetable, harmoni): 0.0334 mmol/kg/day
CNCCC(Oc1ccc(C(F)(F)F)cc1)c1ccccc1 (stereo not drawn)	inactive; no positive results	–
NC1CCCCC1	inactive; no positive results	–
Nc1ccccc1C(=O)OC/C=C/c1ccccc1	–	Potency [2]: 10.2 mmol/kg/day
CC(C)NCC(O)c1ccc(NS(C)(=O)=O)cc1 (stereo not drawn)	inactive; no positive results	–
C#C[C@]1(O)CC[C@H]2[C@@H]3CCc4cc(OC)ccc4[C@H]3CC[C@@]21C	inactive; no positive results	–
O=C1c2ccccc2-c2ccc3c4c(ccc1c24)-c1ccccc1C3=O	–	Potency [1]: 32.8 mmol/kg/day
C=CC(=O)NCO	–	Potency (TD50_Mouse_Note: TD50 is harmonic mean of more than one positive test, TargetSites_Mouse_Female: harderian gland, liver, lung, ovary): 0.263 mmol/kg/day
CC(C)Oc1ccc(Nc2ccccc2)cc1	inactive; no positive results	–
ClC(Cl)C(Cl)(Cl)Cl	–	Potency [2]: 0.283 mmol/kg/day
c1ccc(N=Nc2ccccc2)cc1	inactive; no positive results	–
NNc1ccccc1	inactive	Potency (TD50_Mouse_Note: TD50 is harmonic mean of more than one positive test, TargetSites_Mouse_Female: vascular system): 0.493 mmol/kg/day
O=C1NCCN1	inactive; no positive results	–
OC[C@H]1O[C@@](CO)(O[C@H]2O[C@H](CO)[C@@H](O)[C@H](O)[C@H]2O)[C@@H](O)[C@@H]1O	inactive; no positive results	–
CC/C(C)=N/O	–	Potency [1]: 6.13 mmol/kg/day

Compound	outcome [1]	other results
NS(=O)(=O)c1cc(C(=O)O)c(NCc2ccco2)cc1Cl	–	Potency (TargetSites_Mouse_Female: mammary gland): 2.21 mmol/kg/day
C[N+](=O)[O-]	–	Potency (TD50_Mouse_Note: TD50 is harmonic mean of more than one positive test, TargetSites_Mouse_Female: harderian gland, liver, lung): 7.68 mmol/kg/day
Brc1c(Br)c(Br)c(Oc2c(Br)c(Br)c(Br)c(Br)c2Br)c(Br)c1Br	inactive; no positive results	–
C[C@](N)(Cc1ccc(O)c(O)c1)C(=O)O	inactive; no positive results	–
CC(C)(c1ccc(O)cc1)c1ccc(O)cc1	inactive; no positive results	–
ClC(Cl)=C(c1ccc(Cl)cc1)c1ccc(Cl)cc1	–	Potency [2]: 0.0393 mmol/kg/day
CCN(CC)C(=S)S	inactive; no positive results	–
C=C(C)C(=O)OC	inactive; no positive results	–
NC(=O)/C(=C\c1ccc([N+](=O)[O-])o1)c1ccco1	–	Potency (TD50_Mouse_Note: TD50 is harmonic mean of more than one positive test, greater than ten-fold variation among TD50 values for positive res, TargetSites_Mouse_Female: stomach): 0.528 mmol/kg/day
C/C=C\c1ccc(OC)cc1	inactive	–
CCc1cccc2c3c([nH]c12)C(CC)(CC(=O)O)OCC3 (stereo not drawn)	inactive; no positive results	–
Nc1nc(-c2ccc([N+](=O)[O-])cc2)cs1	–	Potency (TargetSites_Mouse_Female: hematopoietic system): 0.045 mmol/kg/day
ClCOCc1ccc(COCCl)cc1	–	Potency (TD50_Mouse_Note: positive test results only by intraperitoneal or intravenous injection, TargetSites_Mouse_Female: peritoneal cavity): 0.0132 mmol/kg/day
NC(=S)NNS(=O)(=O)c1ccccc1	inactive	–
Cc1ccc2c(-c3cccc(O)c3)nc(=O)n(C(C)C)c2c1	inactive; no positive results	–
CN(C)C(=S)SSC(=S)N(C)C	inactive; no positive results	–
COc1ccc(N)c(C)c1	inactive; ntp bioassay inadequate	–
O=CCCl	–	Potency [1]: 0.46 mmol/kg/day
OC[C@H]1O[C@H](O[C@]2(CCl)O[C@H](CCl)[C@@H](O)[C@@H]2O)[C@H](O)[C@@H](O)[C@H]1Cl	inactive; no positive results	–
NNC(N)=O	–	Potency (TD50_Mouse_Note: TD50 is harmonic mean of more than one positive test, TargetSites_Mouse_Female: lung, vascular system): 2 mmol/kg/day
CN1C(=O)C[C@@H](C(=O)N[C@@H](Cc2cnc[nH]2)C(=O)N2CCC[C@H]2C(N)=O)NC1=O	inactive; no positive results	–
C=C1C/C(=C/C)C(=O)O[C@@H]2CCN3CC=C(COC(=O)[C@@]1(O)CO)[C@H]23	–	Potency (TD50_Mouse_Note: TD50 is harmonic mean of more than one positive test, TargetSites_Mouse_Female: lung): 0.00564 mmol/kg/day
CCCCCCc1ccc(O)cc1O	inactive; no positive results	–
